Reference: US10676485B2, “Macrocyclic MCL-1 inhibitors and methods of use” (AbbVie Inc., priority 2017, dated 2020)
Read-outs that look alike come from different tables or passages of the source.

How the values were obtained:
[1] = system: NCI-H929 human multiple myeloma tumor cell line; assay: NCI-H929 cell viability assay (CellTiter-Glo); format: cell-based; conditions: NCI-H929, read-out: H929 Viability IC50 (μM), 10% FBS, 24 hours of compound treatment
GST-MCL-1 = GST-MCL-1 (Homo sapiens (Human), UniProt Q07820); assay: TR-FRET MCL-1 binding assay (competition with probe F-Bak)
Procedure, shortened: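 Compounds as 11 three-fold dilutions from 25 μM with GST-MCL-1, F-Bak probe and Tb-anti-His antibody, 2 h at room temperature. TR-FRET at 340 nm excitation, 520/525 nm (F-Bak) and 495/510 nm (Tb) emission. Run without human serum and with 10% HS.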

[2] = system: AMO-1 human multiple myeloma tumor cell line; assay: AMO-1 cell viability assay (CellTiter-Glo); format: cell-based; conditions: AMO1, read-out: AMO-1 Viability IC50 (μM), 10% FBS, 24 hours of compound treatment
Method: In one exemplary set of conditions, NCI-H929 or AMO-1 (ATCC. Manassas, Va.) were plated 4.000 cells per well in 384-well tissue culture plates (Corning. Corning, N.Y.) in a total volume of 25 μL RPMI tissue culture medium supplemented with 10% fetal bovine serum (Sigma-Aldrich, St. Louis, Mo.) and treated with a 3-fold serial dilution of the compounds of interest with a Labcyte Echo from a final concentration of 10 μM to 0.0005 μM. Each concentration was tested in duplicate at least 3 independent times. A luminescent signal proportional to the number of viable cells following 24 hours of compound treatment was determined using the CellTiter-Glo® Luminescent Cell Viability Assay according to the manufacturer's recommendations (Promega Corp., Madison, Wis.). The plates were read in a Perkin Elmer Envision using a Luminescence protocol. To generate dose response curves the data is normalized to percent viability by setting the averages of the staurosporine (10 uM) and DMSO only control wells to 0% and (00)% viability respectively. The IC50 values for the compounds are generated by fitting the normalized data with Accelrys Assay Explorer 3.3 to a sigmoidal curve model using linear regression.

AMO-1 xenograft = AMO-1 xenograft model of multiple myeloma; format: in vivo; conditions: Mus musculus, AMO1, 25 mg/kg/day, IP, QDx1, SCID/bg mice; for change in vivo at 25 mg/kg: read-out: TGD (%); for inhibition in vivo at 25 mg/kg: read-out: TGImax (%)
Method: Tumors were size matched at approximately 200 mm^3. […] Tumor volume was estimated two to three times weekly. […] Mice were euthanized when tumor volume reached 3,000 mm3 or skin ulcerations occurred. Eight mice were housed per cage. Food and water were available ad libitum.
Tumor growth inhibition is calculated by 100*(1−Tv/Cv) where Tv and Cv are the mean tumor volumes of the treated and control groups, respectively.

[3] = read-out: MCL-1 Binding Ki (nM, 10% HS), in the presence of 10% HS
[4] = without HS, read-out: MCL-1 Binding Ki

Sequence of GST-MCL-1 (Q07820 whole entry): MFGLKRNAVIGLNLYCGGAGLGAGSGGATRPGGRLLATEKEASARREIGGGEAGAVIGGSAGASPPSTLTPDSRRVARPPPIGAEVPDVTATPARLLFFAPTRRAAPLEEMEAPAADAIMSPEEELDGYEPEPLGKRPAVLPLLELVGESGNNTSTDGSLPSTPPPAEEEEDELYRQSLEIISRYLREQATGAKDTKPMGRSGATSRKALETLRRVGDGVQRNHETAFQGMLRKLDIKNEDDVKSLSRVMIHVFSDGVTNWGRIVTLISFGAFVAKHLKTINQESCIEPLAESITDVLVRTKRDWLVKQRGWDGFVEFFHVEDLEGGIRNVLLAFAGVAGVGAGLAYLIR

SMILES	IC50 [1] [µM]	Ki (GST-MCL-1; [3]) [nM]	Ki (GST-MCL-1; [4]) [nM]	IC50 [2] [µM]	change in vivo at 25 mg/kg (AMO-1 xenograft) [%]	inhibition in vivo at 25 mg/kg (AMO-1 xenograft) [%]
Cc1c(Cl)c2c(Cl)c(C)c1-c1c(-c3ccc(F)cc3)sc3ncnc(c13)O[C@@H](C(=O)O)Cc1cc(ccc1OCc1ccnc(-c3ccc(OC[C@@H]4COCCO4)cc3)n1)OC[C@@H](CN1CCN(C)CC1)O2 [Example 7, (7R,16R)-19,23-dichloro-10-{[2-(4-{[(2S)-1,4-dioxan-2-yl]methoxy}phenyl)pyrimidin-4-yl]methoxy}-1-(4-fluorophenyl)-20,22-dimethyl-16-[(4-methylpiperazin-1-yl)methyl]-7,8,15,16-tetrahydro-18,21-etheno-13,9-(metheno)-6,14,17-trioxa-2-thia-3,5-diazacyclononadeca[1,2,3-cd]indene-7-carboxylic acid]	0.000406	0.92	0.036	0.000171	477	99
Cc1c(Cl)c2c(Cl)c(C)c1-c1c(-c3ccc(F)cc3)sc3ncnc(c13)O[C@@H](C(=O)O)Cc1cc(ccc1OCc1ccnc(N3CCC(F)(COC[C@@H]4COCCO4)CC3)n1)OC[C@@H](CN1CCN(C)CC1)O2 [Example 8, (7R,16R)-19,23-dichloro-10-({2-[4-({[(2S)-1,4-dioxan-2-yl]methoxy}methyl)-4-fluoropiperidin-1-yl]pyrimidin-4-yl}methoxy)-1-(4-fluorophenyl)-20,22-dimethyl-16-[(4-methylpiperazin-1-yl)methyl]-7,8,15,16-tetrahydro-18,21-etheno-13,9-(metheno)-6,14,17-trioxa-2-thia-3,5-diazacyclononadeca[1,2,3-cd]indene-7-carboxylic acid]	0.00176	2.27	0.194	0.00086	46	79
